Laboratory results: US9920075B2, “Triazolopyridine and triazolopyrimidine inhibitors of myeloperoxidase” (BRISTOL-MYERS SQUIBB COMPANY, priority 2014, dated 2018)
pIC50: −log10 of the molar value. Where “and” joins values, the source holds several entries; their conditions need not be identical. Equal entries are not always repeated.

Biological target: T1, myeloperoxidase (MPO) (Homo sapiens, UniProt P05164)
T1 sequence (P05164 49-745): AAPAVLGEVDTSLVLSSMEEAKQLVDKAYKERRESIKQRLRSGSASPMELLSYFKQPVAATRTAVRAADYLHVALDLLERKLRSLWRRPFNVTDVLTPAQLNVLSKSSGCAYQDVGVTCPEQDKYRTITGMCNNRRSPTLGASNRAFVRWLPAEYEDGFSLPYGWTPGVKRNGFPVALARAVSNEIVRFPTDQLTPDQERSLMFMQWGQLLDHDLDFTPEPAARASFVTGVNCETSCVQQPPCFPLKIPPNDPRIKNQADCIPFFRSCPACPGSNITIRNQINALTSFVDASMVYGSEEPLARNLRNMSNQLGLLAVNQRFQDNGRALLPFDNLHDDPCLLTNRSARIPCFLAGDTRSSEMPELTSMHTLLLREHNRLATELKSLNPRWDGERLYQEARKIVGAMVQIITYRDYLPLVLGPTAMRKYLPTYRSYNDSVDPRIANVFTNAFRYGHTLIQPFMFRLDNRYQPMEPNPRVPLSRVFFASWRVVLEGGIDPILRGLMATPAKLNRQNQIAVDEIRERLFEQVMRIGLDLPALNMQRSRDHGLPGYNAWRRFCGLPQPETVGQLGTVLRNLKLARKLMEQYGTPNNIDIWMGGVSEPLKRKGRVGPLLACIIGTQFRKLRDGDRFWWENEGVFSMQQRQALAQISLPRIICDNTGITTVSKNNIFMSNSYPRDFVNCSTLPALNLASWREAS
Test: MPO peroxidation assay (Amplex Red assay)
Format: biochemical
Conditions: MPO peroxidation (Amplex Red), ranges given; read-out: MPO peroxidation assay IC50 values (binned)
Protocol: MPO Peroxidation Assay (Amplex Red Assay)
MPO peroxidation activity was measured in 100 mM KPi (pH 7.4) by utilizing the non-fluorescent reagent Amplex Red (Invitrogen Cat. #A12222) which can be oxidized to the highly fluorescent resorufin. Amplex Red is oxidized by the peroxidase action of MPO to resorufin. […] Enzyme and compound were preincubated for ten minutes at room temperature.
After the ten minute preincubation, 25 μL of an Amplex Red mixture containing 200 μM Amplex Red and 10 mM H2O2 was added to the plate.
IC50 values were calculated by determining the slope of the linear portion of the kinetic trace (180-540 secs), and using that calculated slope to determine % inhibition occurring at each concentration of inhibitor using the following equation:
[formula] where A=minimal Y value (activity level of inhibited sample), B=maximal Y value (activity level of uninhibited sample), C=Log IC50, D=Hill Slope, x=concentration of inhibitor. MPO Chlorination Assay (APF Assay)

| pIC50 | Compound |
| --- | --- |
| ≥ 7.22 | COc1ncc(Br)cc1COc1cc(N)nc2[nH]nnc12 [Example 81, 7-((5-Bromo-2-methoxypyridin-3-yl)methoxy)-3H-[1,2,3]triazolo[4,5-b]pyridin-5-amine] |
| 6.82 to 7.22 | Nc1nc(OCc2cc(Cl)nc(Cl)c2)c2nn[nH]c2n1 [Example 119, 7-((2,6-dichloropyridin-4-yl)methoxy)-3H-[1,2,3]triazolo[4,5-d]pyrimidin-5-amine] |
| ≥ 7.22 | Nc1cc(OCc2ncc(-c3ccc(C4CC4)nc3)cc2F)c2nn[nH]c2n1 [Example 101, 7-((6′-cyclopropyl-5-fluoro-[3,3′-bipyridin]-6-yl)methoxy)-3H-[1,2,3]triazolo[4,5-b] pyridin-5-amine] |
| 6.82 to 7.22 and 6.00 to 6.82 | Nc1cc(OCc2cccc3c2nnn3Cc2ccccc2)c2nn[nH]c2n1 [Example 38, 7-((1-Benzyl-1H-benzo[d][1,2,3]triazol-4-yl)methoxy)-3H-[1,2,3]triazolo [4,5-b]pyridin-5-amine] |
| 6.82 to 7.22 | Cc1nn(-c2ccc(N3CCNCC3)cc2)nc1COc1cc(N)nc2[nH]nnc12 [Example 63, 7-((5-Methyl-2-(4-(piperazin-1-yl)phenyl)-2H-1,2,3-triazol-4-yl)methoxy)-3H-[1,2,3]triazolo[4,5-b]pyridin-5-amine] |
| ≥ 7.22 | Nc1cc(OCc2nc(-c3ccc(N4CCNCC4)nc3)ccc2F)c2nn[nH]c2n1 [Example 97, 7-((5-fluoro-6′-(piperazin-1-yl)-[2,3′-bipyridin]-6-yl)methoxy)-3H-[1,2,3] triazolo[4,5-b]pyridin-5-amine] |
| 6.82 to 7.22 | Nc1cc(OCc2ccc(Br)cn2)c2nn[nH]c2n1 [Example 92, 7-((5-Bromopyridin-2-yl)methoxy)-3H-[1,2,3]triazolo[4,5-b]pyridin-5-amine] |
| 6.82 to 7.22 | Cn1nc(COc2cc(N)nc3[nH]nnc23)cc1-c1ccc(CO)nc1 [Example 103, (5-(3-(((5-amino-3H-[1,2,3]triazolo[4,5-b]pyridin-7-yl)oxy)methyl)-1-methyl-1H-pyrazol-5-yl)pyridin-2-yl)methanol] |
| 6.82 to 7.22 | Nc1cc(OCc2nc(-c3ccccc3)no2)c2nn[nH]c2n1 [Example 24, 7-((3-Phenyl-1,2,4-oxadiazol-5-yl)methoxy)-3H-[1,2,3]triazolo[4,5-b]pyridin-5-amine] |
| ≥ 7.22 | Cc1nn(Cc2cccc(C3CCNCC3)c2)nc1COc1cc(N)nc2[nH]nnc12 [Example 78, 7-((5-Methyl-2-(3-(piperidin-4-yl)benzyl)-2H-1,2,3-triazol-4-yl)methoxy)-3H-[1,2,3]triazolo[4,5-b]pyridin-5-amine] |
| ≥ 7.22 | Cn1nc(COc2cc(N)nc3[nH]nnc23)cc1Br [Example 93, 7-((5-Bromo-1-methyl-1H-pyrazol-3-yl)methoxy)-3H-[1,2,3]triazolo[4,5-b]pyridin-5-amine] |
| 6.82 to 7.22 | Nc1cc(OCc2nn(-c3cccc(Cl)c3)c3c2CCNC3=O)c2nn[nH]c2n1 [Example 51, 3-(((5-Amino-3H-[1,2,3]triazolo[4,5-b]pyridin-7-yl)oxy)methyl)-1-(3-chlorophenyl)-5,6-dihydro-1H-pyrazolo[3,4-c]pyridin-7(4H)-one] |
| 6.82 to 7.22 and 6.00 to 6.82 | Cc1nn(Cc2c[nH]cn2)nc1COc1cc(N)nc2[nH]nnc12 [Example 71, 7-((2-((1H-Imidazol-4-yl)methyl)-5-methyl-2H-1,2,3-triazol-4-yl)methoxy)-3H-[1,2,3]triazolo[4,5-b]pyridin-5-amine] |
| ≥ 7.22 | Cn1nc(COc2cc(N)nc3[nH]nnc23)cc1-c1ccccc1 [Example 17, 7-((1-Methyl-5-phenyl-1H-pyrazol-3-yl)methoxy)-3H-[1,2,3]triazolo[4,5-b]pyridin-5-amine] |
| ≥ 7.22 | Nc1cc(OCc2ccc(C(F)(F)F)o2)c2nn[nH]c2n1 [Example 82, 7-((5-(Trifluoromethyl)furan-2-yl)methoxy)-3H-[1,2,3]triazolo[4,5-b]pyridin-5-amine] |
| ≥ 7.22 | Nc1cc(OCc2cc(-c3ccc(N4CCNCC4)nc3)ncc2F)c2nn[nH]c2n1 [Example 110, 7-((5-fluoro-6′-(piperazin-1-yl)-[2,3′-bipyridin]-4-yl)methoxy)-3H-[1,2,3] triazolo[4,5-b]pyridin-5-amine] |
| ≥ 7.22 | Cc1nn(-c2ccc(F)cc2)nc1COc1cc(N)nc2[nH]nnc12 [Example 10, 7-((2-(4-Fluorophenyl)-5-methyl-2H-1,2,3-triazol-4-yl)methoxy)-3H-[1,2,3]triazolo[4,5-b]pyridin-5-amine] |

| pIC50 | Compound |
| --- | --- |
| ≥ 7.22 | Nc1cc(OCc2nc(Br)ccc2F)c2nn[nH]c2n1 [Example 95, 7-((6-Bromo-3-fluoropyridin-2-yl)methoxy)-3H-[1,2,3]triazolo[4,5-b]pyridin-5-amine] |
| 6.82 to 7.22 | Nc1nc(OCc2cn(-c3ccccc3)nn2)c2nn[nH]c2n1 [Example 121, 7-((1-phenyl-1H-1,2,3-triazol-4-yl)methoxy)-3H-[1,2,3]triazolo[4,5-d] pyrimidin-5-amine] |
| ≥ 7.22 | Cc1nc(-c2ccc(Cl)cc2)sc1COc1cc(N)nc2[nH]nnc12 [Example 49, 7-((2-(4-Chlorophenyl)-4-methylthiazol-5-yl)methoxy)-3H-[1,2,3]triazolo [4,5-b]pyridin-5-amine] |
| 6.00 to 6.82 | Cc1nc(-c2ccc(Cl)cc2)ncc1COc1cc(N)nc2[nH]nnc12 [Example 31, 7-((2-(4-Chlorophenyl)-4-methylpyrimidin-5-yl)methoxy)-3H-[1,2,3]triazolo[4,5-b]pyridin-5-amine] |
| 6.00 to 6.82 | Cc1oc(-c2cc(F)cc(F)c2)nc1COc1cc(N)nc2[nH]nnc12 [Example 27, 7-((2-(3,5-Difluorophenyl)-5-methyloxazol-4-yl)methoxy)-3H-[1,2,3]triazolo[4,5-b]pyridin-5-amine] |
| 6.00 to 6.82 | Nc1cc(OCc2cn3nc(Cl)ccc3n2)c2nn[nH]c2n1 [Example 40, 7-((6-Chloroimidazo[1,2-b]pyridazin-2-yl)methoxy)-3H-[1,2,3]triazolo[4,5-b]pyridin-5-amine] |
| 6.82 to 7.22 | Nc1cc(OCC2CCN(c3ncccn3)CC2)c2nn[nH]c2n1 [Example 84, 7-((1-(Pyrimidin-2-yl)piperidin-4-yl)methoxy)-3H-[1,2,3]triazolo[4,5-b]pyridin-5-amine] |
| ≥ 7.22 | Nc1cc(OCc2cccc(C(F)(F)F)n2)c2nn[nH]c2n1 [Example 16, 7-((6-(Trifluoromethyl)pyridin-2-yl)methoxy)-3H-[1,2,3]triazolo[4,5-b]pyridin-5-amine] |
| 6.82 to 7.22 | Nc1cc(OCc2csc(-c3ccccc3)n2)c2nn[nH]c2n1 [Example 42, 7-((2-Phenylthiazol-4-yl)methoxy)-3H-[1,2,3]triazolo[4,5-b]pyridin-5-amine] |
| ≥ 7.22 | Cn1ncc2cccc(COc3cc(N)nc4[nH]nnc34)c21 [Example 8, 7-((1-Methyl-1H-indazol-7-yl)methoxy)-3H-[1,2,3]triazolo[4,5-b]pyridin-5-amine] |
| ≥ 7.22 | Nc1cc(OCc2ncc(Br)cc2F)c2nn[nH]c2n1 [Example 87, 7-((5-Bromo-3-fluoropyridin-2-yl)methoxy)-3H-[1,2,3]triazolo[4,5-b]pyridin-5-amine] |
| 6.82 to 7.22 | Nc1cc(OCc2ncc(-c3ccc(CO)nc3)cc2F)c2nn[nH]c2n1 [Example 108, (6′-(((5-amino-3H-[1,2,3]triazolo[4,5-b]pyridin-7-yl)oxy)methyl)-5′-fluoro-[3,3′-bipyridin]-6-yl)methanol] |
| 6.82 to 7.22 | Nc1nc(OCc2cccc3ncccc23)c2nn[nH]c2n1 [Example 116, 7-(quinolin-5-ylmethoxy)-3H-[1,2,3] triazolo[4,5-d]pyrimidin-5-amine] |
| 6.82 to 7.22 | COCc1nn(-c2ccccc2)nc1COc1cc(N)nc2[nH]nnc12 [Example 56, 7-((5-(Methoxymethyl)-2-phenyl-2H-1,2,3-triazol-4-yl)methoxy)-3H-[1,2,3]triazolo[4,5-b]pyridin-5-amine] |
| ≥ 7.22 | Cn1nc(C2CC2)cc1COc1cc(N)nc2[nH]nnc12 [Example 20, 7-((3-Cyclopropyl-1-methyl-1H-pyrazol-5-yl)methoxy)-3H-[1,2,3]triazolo [4,5-b]pyridin-5-amine] |
| 6.82 to 7.22 | Nc1cc(OCc2cc(Cl)ncc2F)c2nn[nH]c2n1 [Example 88, 7-((2-Chloro-5-fluoropyridin-4-yl)methoxy)-3H-[1,2,3]triazolo[4,5-b]pyridin-5-amine] |

Same assay, conditions: MPO peroxidation assay IC50 values (binned), MPO peroxidation (Amplex Red), ranges given

| pIC50 | Compound |
| --- | --- |
| 6.82 to 7.22 | Nc1cc(OCc2ncc(-c3ccccc3)o2)c2nn[nH]c2n1 [Example 25, 7-((5-Phenyloxazol-2-yl)methoxy)-3H-[1,2,3]triazolo[4,5-b]pyridin-5-amine] |
